Structures are written as SMILES.

This assay addresses T1, Muscarinic acetylcholine receptor M4 (Homo sapiens, UniProt P08173).
T1 sequence (P08173 whole entry): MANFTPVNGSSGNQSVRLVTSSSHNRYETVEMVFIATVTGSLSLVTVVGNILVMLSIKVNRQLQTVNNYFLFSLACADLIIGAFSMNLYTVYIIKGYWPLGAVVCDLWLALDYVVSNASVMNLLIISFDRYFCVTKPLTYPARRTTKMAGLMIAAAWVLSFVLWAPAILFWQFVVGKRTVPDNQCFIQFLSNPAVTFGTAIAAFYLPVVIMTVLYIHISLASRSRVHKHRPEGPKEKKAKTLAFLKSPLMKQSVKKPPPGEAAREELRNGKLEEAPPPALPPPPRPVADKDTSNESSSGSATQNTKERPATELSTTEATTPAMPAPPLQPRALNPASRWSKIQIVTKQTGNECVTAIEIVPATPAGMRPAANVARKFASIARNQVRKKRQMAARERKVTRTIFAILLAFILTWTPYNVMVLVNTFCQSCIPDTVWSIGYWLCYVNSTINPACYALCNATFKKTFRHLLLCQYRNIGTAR
The assay is described as follows: Positive allosteric modulation of human muscarinic acetylcholine receptor M4 expressed in CHO-K1 cells coexpressing Galphaqi5 assessed as increase in acetylcholine-induced […] incubated for 16 to 20 hrs measured for 3.5 to 4 mins by FLIPR assay. It counts as functional, cell-based.
Take `COc1ccc(OC2CCN(c3nc4oc(=O)[nH]c(=O)c4c(Cl)c3C)CC2)cn1`: the EC50 is 0.015 µM. Turning to `COc1ccc(OC2CCN(c3nc(CO)nc(Cl)c3C)CC2)cn1`, the EC50 was determined as 0.025 µM.

Take `Cc1cc2c(nc1N1CC[C@@H](Oc3ccc4c(cnn4C)c3)[C@@H](F)C1)CNC2=O`: the EC50 is 0.017 µM.

(Values after ChEMBL document CHEMBL4196156, “Allosteric Modulators of the M4 Muscarinic Acetylcholine Receptor” (ACS Med Chem Lett, 2018).)
